Measured values as given in patent publication US12599136B2, “Substituted isophthalic acid diamides and their use as herbicides” (Bayer Aktiengesellschaft, priority 2020, dated 2026).

How the values were obtained:
Type in all cases: in vivo
Abutilon theophrasti [1] = test: Post-emergence herbicidal action against ABUTH
How it was run: (§1)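 Greenhouse plants in sandy loam were sprayed at the one-leaf stage, 2 to 3 weeks after sowing, with WP or EC formulations as aqueous suspension or emulsion (600 to 800 l/ha water, 0.2% wetting agent). Visual damage was scored about 3 weeks later versus untreated controls, 0% = like control, 100% = dead.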

Abutilon theophrasti [2] = test: Pre-emergence herbicidal action against ABUTH; details: visual score after 3 weeks vs untreated controls
How it was run: (§2)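 Pre-emergence soil-surface spray of formulated compound (WP or EC; 600 to 800 l/ha; 0.2% wetting agent) over seeds sown in sandy loam. After 3 weeks under greenhouse conditions, damage is estimated visually in percent against untreated plants.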

Amaranthus retroflexus [3] = test: Pre-emergence herbicidal action against AMARE; details: visual score after 3 weeks vs untreated controls
How it was run: as §2

Veronica persica [4] = test: Pre-emergence herbicidal action against VERPE
How it was run: as §2

Setaria viridis [5] = test: Post-emergence herbicidal action against SETVI; details: visual assessment about 3 weeks after treatment
How it was run: as §1

Matricaria inodora [6] = test: Pre-emergence herbicidal action against MATIN; details: visual score after 3 weeks vs untreated controls
How it was run: as §2

Viola tricolor [7] = test: Pre-emergence herbicidal action against VIOTR
How it was run: as §2

Alopecurus myosuroides [8] = test: Pre-emergence herbicidal action against ALOMY; details: visual score after 3 weeks vs untreated controls
How it was run: as §2

Setaria viridis [9] = test: Pre-emergence herbicidal action against SETVI; details: 80 g/ha
How it was run: as §2

Digitaria sanguinalis [10] = test: Pre-emergence herbicidal action against DIGSA; details: 80 g/ha
How it was run: as §2

Pharbitis purpurea = test: Post-emergence herbicidal action against PHBPU; details: visual assessment about 3 weeks after treatment
How it was run: as §1

Viola tricolor [11] = test: Post-emergence herbicidal action against VIOTR
How it was run: as §1

Digitaria sanguinalis [12] = test: Post-emergence herbicidal action against DIGSA; details: 20 g/ha
Protocol: Seeds of monocotyledonous and dicotyledonous weed and crop plants are laid out in sandy loam soil in wood-fiber pots, covered with soil and cultivated in a greenhouse under good growth conditions. 2 to 3 weeks after sowing, the test plants are treated at the one-leaf stage. The compounds of the invention, formulated in the form of wettable powders (WP) or as emulsion concentrates (EC), are then sprayed onto the green parts of the plants in the form of an aqueous suspension or emulsion at a water application rate equivalent to 600 to 800 l/ha, with addition of 0.2% wetting agent. After the test plants have been left to stand in the greenhouse under optimal growth conditions for about 3 weeks, the action of the preparations is assessed visually in comparison to untreated controls (herbicidal action in percent (%): 100% activity=the plants have died, 0% activity=like control plants). […] The tables below illustrate, in an illustrative manner, the post-emergence herbicidal action of the compounds of the invention, the herbicidal activity being stated in percent.

Echinochloa crus-galli [13] = test: Pre-emergence herbicidal action against ECHCG; details: 80 g/ha; visual score after 3 weeks vs untreated controls
How it was run: as §2

Amaranthus retroflexus [14] = test: Post-emergence herbicidal action against AMARE; details: visual assessment about 3 weeks after treatment
How it was run: as §1

Matricaria inodora [15] = test: Post-emergence herbicidal action against MATIN; details: visual assessment about 3 weeks after treatment
How it was run: as §1

Alopecurus myosuroides [16] = test: Post-emergence herbicidal action against ALOMY
How it was run: as §1

Echinochloa crus-galli [17] = test: Post-emergence herbicidal action against ECHCG; details: visual assessment about 3 weeks after treatment
How it was run: as §1

Veronica persica [18] = test: Post-emergence herbicidal action against VERPE; details: visual assessment about 3 weeks after treatment
How it was run: as §1

Lolium rigidum = test: Pre-emergence herbicidal action against LOLRI; details: 80 g/ha
Description: (§3) Seeds of monocotyledonous and dicotyledonous weed plants and crop plants are laid out in sandy loam soil in wood-fiber pots and covered with soil. The compounds of the invention, formulated in the form of wettable powders (WP) or as emulsion concentrates (EC), are then applied to the surface of the covering soil in the form of an aqueous suspension or emulsion at a water application rate equivalent to 600 to 800 l/ha, with addition of 0.2% wetting agent. After the treatment, the pots are placed in a greenhouse and kept under good growth conditions for the trial plants. The damage to the test plants is scored visually after a test period of 3 weeks by comparison with untreated controls (herbicidal activity in percent (%): 100% activity=the plants have died, 0% activity=like control plants). […] The tables below illustrate, in an illustrative manner, the post-emergence herbicidal action of the compounds of the invention, the herbicidal activity being stated in percent.

Polygonum convolvulus = test: Pre-emergence herbicidal action against POLCO; details: 80 g/ha
Description: as §3

Avena fatua [19] = test: Pre-emergence herbicidal action against AVEFA; details: 80 g/ha; visual score after 3 weeks vs untreated controls
Description: as §3

Avena fatua [20] = test: Post-emergence herbicidal action against AVEFA; details: 20 g/ha, visual assessment about 3 weeks after treatment
How it was run: as §1

SMILES	Post-emergence action against ABUTH (Abutilon theophrasti [1]; 5 g/ha) [%]	Post-emergence action against ABUTH (Abutilon theophrasti [1]; 20 g/ha) [%]	Pre-emergence action against ABUTH (Abutilon theophrasti [2]; 80 g/ha) [%]	Pre-emergence action against AMARE (Amaranthus retroflexus [3]; 20 g/ha) [%]	Pre-emergence action against AMARE (Amaranthus retroflexus [3]; 80 g/ha) [%]	Pre-emergence action against VERPE (Veronica persica [4]; 80 g/ha) [%]	Post-emergence action against SETVI in % (Setaria viridis [5]; 20 g/ha) [%]	Pre-emergence action against MATIN (Matricaria inodora [6]; 80 g/ha) [%]	Pre-emergence action against VIOTR (Viola tricolor [7]; 80 g/ha) [%]	Pre-emergence action against ALOMY (Alopecurus myosuroides [8]; 80 g/ha) [%]	Pre-emergence action against SETVI (Setaria viridis [9]) [%]	Post-emergence action against PHBPU in % (Pharbitis purpurea; 20 g/ha) [%]	Post-emergence action against VIOTR in % (Viola tricolor [11]; 20 g/ha) [%]	Pre-emergence action against ECHCG (Echinochloa crus-galli [13]) [%]	Post-emergence action against AMARE in % (Amaranthus retroflexus [14]; 5 g/ha) [%]	Post-emergence action against AMARE in % (Amaranthus retroflexus [14]; 20 g/ha) [%]	Post-emergence action against MATIN in % (Matricaria inodora [15]; 20 g/ha) [%]	Post-emergence action against ALOMY (Alopecurus myosuroides [16]; 20 g/ha) [%]	Post-emergence action against ECHCG in % (Echinochloa crus-galli [17]; 20 g/ha) [%]	Pre-emergence action against ABUTH (Abutilon theophrasti [2]; 20 g/ha) [%]	further results
CCN(C)C(=O)c1c(C(F)(F)F)ccc(C(=O)Nc2nnnn2C)c1C [Example 1-20, N^3-ethyl-N^3-2-dimethyl-N^1-(1-methyl-1H-tetrazol-5-yl)-4-(trifluoromethyl)isophthalamide]	80	90	100	80	90	80	80	100	100	90	100	90	90	–	–	–	–	–	–	–	Pre-emergence action against DIGSA (Digitaria sanguinalis [10]): 90%; Post-emergence action against DIGSA in % (Digitaria sanguinalis [12]): 80%
Cc1c(C(=O)Nc2nnnn2C)ccc(C(F)(F)F)c1C(=O)N(C1CC1)C1CC1 [Example 1-40]	–	–	80	100	100	–	–	90	100	–	–	–	–	80	80	80	80	–	–	–	Pre-emergence action against DIGSA (Digitaria sanguinalis [10]): 100%; Post-emergence action against DIGSA in % (Digitaria sanguinalis [12]): 90%
CN(CC(F)F)C(=O)c1c(C(F)F)ccc(C(=O)Nc2nnnn2C)c1Cl [Example 1-159]	90	90	100	100	100	100	100	100	100	90	100	90	90	100	100	100	90	90	90	100	Post-emergence action against ALOMY (Alopecurus myosuroides [16]; 5 g/ha): 90%; Post-emergence action against ECHCG in % (Echinochloa crus-galli [17]; 5 g/ha): 80%; Post-emergence action against MATIN in % (Matricaria inodora [15]; 5 g/ha): 80%; Post-emergence action against VERPE in % (Veronica persica [18]; 5 g/ha): 80%; Post-emergence action against VERPE in % (Veronica persica [18]; 20 g/ha): 90%; Pre-emergence action against VERPE (Veronica persica [4]; 20 g/ha): 90%; Post-emergence action against SETVI in % (Setaria viridis [5]; 5 g/ha): 100%; Pre-emergence action against MATIN (Matricaria inodora [6]; 20 g/ha): 90%; Pre-emergence action against LOLRI (Lolium rigidum): 80%; Pre-emergence action against ALOMY (Alopecurus myosuroides [8]; 20 g/ha): 90%; Pre-emergence action against POLCO (Polygonum convolvulus): 80%; Post-emergence action against VIOTR in % (Viola tricolor [11]; 5 g/ha): 80%; Pre-emergence action against AVEFA (Avena fatua [19]): 80%
CCn1nnnc1NC(=O)c1ccc(C(F)(F)F)c(C(=O)N(C)C2CC2)c1Cl [Example 2-125]	–	–	100	100	100	–	–	100	100	100	100	–	–	–	90	90	90	80	–	90	Post-emergence action against AVEFA in % (Avena fatua [20]): 80%; Pre-emergence action against DIGSA (Digitaria sanguinalis [10]): 100%; Post-emergence action against DIGSA in % (Digitaria sanguinalis [12]): 90%
CCn1nnnc1NC(=O)c1ccc(C(F)F)c(C(=O)N(C)C2CC2)c1Cl [Example 2-156]	–	90	100	100	100	90	80	100	100	90	100	80	90	100	100	100	90	90	90	100	Post-emergence action against MATIN in % (Matricaria inodora [15]; 5 g/ha): 90%; Post-emergence action against VERPE in % (Veronica persica [18]; 20 g/ha): 80%; Pre-emergence action against MATIN (Matricaria inodora [6]; 20 g/ha): 100%; Post-emergence action against AVEFA in % (Avena fatua [20]): 90%; Pre-emergence action against LOLRI (Lolium rigidum): 80%; Pre-emergence action against ALOMY (Alopecurus myosuroides [8]; 20 g/ha): 90%; Pre-emergence action against POLCO (Polygonum convolvulus): 90%; Post-emergence action against PHBPU in % (Pharbitis purpurea; 5 g/ha): 80%; Post-emergence action against VIOTR in % (Viola tricolor [11]; 5 g/ha): 90%; Pre-emergence action against AVEFA (Avena fatua [19]): 90%
CCn1nnnc1NC(=O)c1ccc(C(F)F)c(C(=O)N(C)CC(F)F)c1Cl [Example 2-159]	80	90	100	100	100	80	90	100	100	100	100	–	90	90	100	100	90	–	90	100	Post-emergence action against MATIN in % (Matricaria inodora [15]; 5 g/ha): 80%; Post-emergence action against VERPE in % (Veronica persica [18]; 20 g/ha): 80%; Pre-emergence action against MATIN (Matricaria inodora [6]; 20 g/ha): 90%; Post-emergence action against AVEFA in % (Avena fatua [20]): 90%; Pre-emergence action against LOLRI (Lolium rigidum): 90%; Pre-emergence action against POLCO (Polygonum convolvulus): 90%; Post-emergence action against VIOTR in % (Viola tricolor [11]; 5 g/ha): 80%; Pre-emergence action against AVEFA (Avena fatua [19]): 90%
CCN(C(=O)c1c(C(F)F)ccc(C(=O)Nc2nnnn2CC)c1Cl)C1CC1 [Example 2-167]	90	90	100	100	100	–	90	100	100	100	100	90	100	90	100	100	80	100	90	100	Post-emergence action against ALOMY (Alopecurus myosuroides [16]; 5 g/ha): 80%; Post-emergence action against VERPE in % (Veronica persica [18]; 20 g/ha): 80%; Post-emergence action against SETVI in % (Setaria viridis [5]; 5 g/ha): 90%; Pre-emergence action against MATIN (Matricaria inodora [6]; 20 g/ha): 100%; Post-emergence action against AVEFA in % (Avena fatua [20]): 80%; Pre-emergence action against VIOTR (Viola tricolor [7]; 20 g/ha): 80%; Pre-emergence action against LOLRI (Lolium rigidum): 80%
